System: HaCaT keratinocytes
Test: Influence on keratinocyte proliferation (HaCaT, Cell Titer Viability Assay)
Format: cell-based
Settings: Homo sapiens, 25 μM test compound, KBM/FCS, 1% DMSO, 48 hrs incubation, read-out: inhibition of keratinocyte proliferation compared to control experiments
Method: Influence of Compounds According to the Invention on Keratinocyte Proliferation
5×10^3 HaCaT keratinocytes were seeded into 60 wells of 96 well plates in 200 μl KBM/10% FCS and incubated for 24 hrs at 37° C. The test compounds were dissolved at 100 mM in DMSO. The test items were then diluted to a concentration of 25 μM in KBM/FCS with a final concentration of 1% DMSO. The test compounds, as well as the negative control for unstimulated cells (KBM/1% DMSO) and stimulated cells (KBM/FCS/1% DMSO), were added to the HaCaTs in triplicates and incubated for 48 hrs. At the end of the incubation period, the media was removed and cell numbers were determined with Cell Titer Viability Assay from Promega (#G7571/G7572) according to the manufacturer's instructions.

COc1cccc(C(=O)N2c3ccccc3-c3ccccc3C2c2c[nH]c3ccccc23)c1 (stereo not shown) [Example 11, [6-(1H-Indol-3-yl)-6H-phenanthridin-5-yl]-(3-methoxy-phenyl)-methanone]
inhibition at 25 µM: > 50%
